Test results published in the supplement of paper PMC11061612.

Columns and labels:
AZD0156 = compound: CN(C)CCCOc1ccc(-c2ccc3ncc4c(c3c2)n(C2CCOCC2)c(=O)n4C)cn1 [AZD0156]
Outline: (§1)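 Cancer cell lines were seeded into 1536-well plates in 7.5 μl medium (DMEM/F12 or RPMI, 10% FBS), held 24 hours at 37°C and 5% CO2, and dosed for 72 hours with final DMSO typically 0.2%. Luminescence from CellTiter-Glo 2.0, scaled between blank-well and DMSO-well means, served as viability. The single-agent IC50 was obtained from dose-response fits with a non-linear mixed effects model, each fit being a two-parameter logistic curve.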

Savolitinib = compound: C[C@@H](c1ccc2nccn2c1)n1nnc2ncc(-c3cnn(C)c3)nc21 [Savolitinib]; conditions: max 1 µM
Outline: as §1

AZD7648 = compound: Cc1cc2ncnn2cc1Nc1ncc2c(n1)n(C1CCOCC1)c(=O)n2C [AZD7648]; conditions: max 10 µM
Outline: as §1

Trametinib = compound: CC(=O)Nc1cccc(-n2c(=O)n(C3CC3)c(=O)c3c(Nc4ccc(I)cc4F)n(C)c(=O)c(C)c32)c1 [Trametinib]; conditions: max 1 µM
Outline: as §1

AZD5991 = compound: Cc1c2c(nn1C)CSCc1cc(n(C)n1)CSc1cc(c3ccccc3c1)OCCCc1c(C(=O)O)n(C)c3c-2c(Cl)ccc13 [AZD5991]; conditions: max 1 µM
Outline: as §1

Alisertib = compound: COc1cc(Nc2ncc3c(n2)-c2ccc(Cl)cc2C(c2c(F)cccc2OC)=NC3)ccc1C(=O)O [Alisertib]; conditions: max 10 µM
Outline: as §1

Venetoclax = compound: CC1(C)CCC(CN2CCN(c3ccc(C(=O)NS(=O)(=O)c4ccc(NCC5CCOCC5)c([N+](=O)[O-])c4)c(Oc4cnc5[nH]ccc5c4)c3)CC2)=C(c2ccc(Cl)cc2)C1 [Venetoclax]; conditions: max 1 µM
Outline: as §1

Capivasertib = compound: C1CN(CCC1(C(=O)N[C@@H](CCO)C2=CC=C(C=C2)Cl)N)C3=NC=NC4=C3C=CN4 [Capivasertib]
Outline: as §1

Selumetinib = compound: Cn1cnc2c(F)c(Nc3ccc(Br)cc3Cl)c(C(=O)NOCCO)cc21 [Selumetinib]
Outline: as §1

Taselisib = compound: Cc1nc(-c2cn3c(n2)-c2ccc(-c4cnn(C(C)(C)C(N)=O)c4)cc2OCC3)n(C(C)C)n1 [Taselisib]; conditions: max 10 µM
Outline: as §1

AZD6738 = compound: C[C@@H]1COCCN1C2=NC(=NC(=C2)C3(CC3)[S@](=N)(=O)C)C4=C5C=CNC5=NC=C4 [AZD6738]; conditions: max 10 µM
Outline: as §1

SN-38 = compound: CCc1c2c(nc3ccc(O)cc13)-c1cc3c(c(=O)n1C2)COC(=O)[C@]3(O)CC [SN-38]; conditions: max 0.3 µM
Outline: as §1

Palbociclib = compound: CC(=O)c1c(C)c2cnc(Nc3ccc(N4CCNCC4)cn3)nc2n(C2CCCC2)c1=O [Palbociclib]; conditions: max 10 µM
Outline: as §1

Prexasertib = compound: COc1cccc(OCCCN)c1-c1cc(Nc2cnc(C#N)cn2)n[nH]1 [Prexasertib]; conditions: max 1 µM
Outline: as §1

Dasatinib = compound: CC1=C(C(=CC=C1)Cl)NC(=O)C2=CN=C(S2)NC3=CC(=NC(=N3)C)N4CCN(CC4)CCO [Dasatinib]; conditions: max 2 µM
Outline: as §1

AZD4320 = compound: CN(CC[C@H](CSC1=CC=CC=C1)NC2=C(C=C(C=C2)S(=O)(=O)NC(=O)C3=CC=C(C=C3)N4CCC(CC4)[C@H](C5=CC=CC=C5C6=CC=C(C=C6)Cl)O)S(=O)(=O)C(F)(F)F)CCO [AZD4320]; conditions: max 1 µM
Outline: as §1

AZD8186 = compound: C[C@@H](Nc1cc(F)cc(F)c1)c1cc(C(=O)N(C)C)cc2c(=O)cc(N3CCOCC3)oc12 [AZD8186]; conditions: max 3 µM
Outline: as §1

AZD2811 = compound: CCN(CCO)CCCOc1ccc2c(Nc3cc(CC(=O)Nc4cccc(F)c4)[nH]n3)ncnc2c1 [AZD2811]; conditions: max 1 µM
Outline: as §1

Crizotinib = compound: C[C@@H](Oc1cc(-c2cnn(C3CCNCC3)c2)cnc1N)c1c(Cl)ccc(F)c1Cl [Crizotinib]; conditions: max 10 µM
Outline: as §1

AZD5153 = compound: COc1nnc2ccc(N3CCC(c4ccc(OCCN5CCN(C)C(=O)[C@H]5C)cc4)CC3)nn12 [AZD5153]; conditions: max 1 µM
Outline: as §1

Lapatinib = compound: CS(=O)(=O)CCNCc1ccc(-c2ccc3ncnc(Nc4ccc(OCc5cccc(F)c5)c(Cl)c4)c3c2)o1 [Lapatinib]; conditions: max 10 µM
Outline: as §1

AZD1390 = compound: CC(C)n1c(=O)n(C)c2cnc3cc(F)c(-c4ccc(OCCCN5CCCCC5)nc4)cc3c21 [AZD1390]; conditions: max 0.3 µM
Outline: as §1

SG3199 = compound: CC1=CN2[C@@H](C1)C=NC3=CC(=C(C=C3C2=O)OC)OCCCCCOC4=C(C=C5C(=C4)N=C[C@@H]6CC(=CN6C5=O)C)OC [SG3199]; conditions: max 0.001 µM
Outline: as §1

AZD1775 = compound: C=CCn1c(=O)c2cnc(Nc3ccc(N4CCN(C)CC4)cc3)nc2n1-c1cccc(C(C)(C)O)n1 [AZD1775]
Outline: as §1

Doxorubicin = compound: COc1cccc2c1C(=O)c1c(O)c3c(c(O)c1C2=O)C[C@@](O)(C(=O)CO)C[C@@H]3O[C@H]1C[C@H](N)[C@H](O)[C@H](C)O1 [Doxorubicin]; conditions: max 1 µM
Outline: as §1

Gefitinib = compound: COc1cc2ncnc(Nc3ccc(F)c(Cl)c3)c2cc1OCCCN1CCOCC1 [Gefitinib]; conditions: max 10 µM
Outline: as §1

Olaparib = compound: O=C(c1cc(Cc2n[nH]c(=O)c3ccccc23)ccc1F)N1CCN(C(=O)C2CC2)CC1 [Olaparib]; conditions: max 10 µM
Outline: as §1

Row | Cell Line | IC50, cell viability 72 h (AZD0156; max 3 µM) [nM] | IC50, cell viability 72 h (Savolitinib) [nM] | IC50, cell viability 72 h (AZD7648) [nM] | IC50, cell viability 72 h (Trametinib) [nM] | IC50, cell viability 72 h (AZD5991) [nM] | IC50, cell viability 72 h (Alisertib) [nM] | IC50, cell viability 72 h (Venetoclax) [nM] | IC50, cell viability 72 h (Capivasertib; max 10 µM) [nM] | IC50, cell viability 72 h (Selumetinib; max 10 µM) [nM] | IC50, cell viability 72 h (Taselisib) [nM] | IC50, cell viability 72 h (AZD6738) [nM] | IC50, cell viability 72 h (SN-38) [nM] | IC50, cell viability 72 h (Palbociclib) [nM] | IC50, cell viability 72 h (Prexasertib) [nM] | IC50, cell viability 72 h (Dasatinib) [nM] | IC50, cell viability 72 h (AZD4320) [nM] | IC50, cell viability 72 h (AZD8186) [nM] | IC50, cell viability 72 h (AZD2811) [nM] | IC50, cell viability 72 h (Crizotinib) [nM] | IC50, cell viability 72 h (AZD5153) [nM] | IC50, cell viability 72 h (Lapatinib) [nM] | IC50, cell viability 72 h (AZD1390) [nM] | IC50, cell viability 72 h (SG3199) [nM] | IC50, cell viability 72 h (AZD1775; max 3 µM) [nM] | IC50, cell viability 72 h (Doxorubicin) [nM] | IC50, cell viability 72 h (Gefitinib) [nM] | IC50, cell viability 72 h (Olaparib) [nM] | IC50, cell viability 72 h (AZD0156; max 1 µM) [nM] | IC50, cell viability 72 h (Capivasertib; max 3 µM) [nM] | IC50, cell viability 72 h (Selumetinib; max 3 µM) [nM] | IC50, cell viability 72 h (AZD1775; max 1 µM) [nM]
1 | NCI-H1975 (Lung Adenocarcinoma) | > 3000 | > 1000 | > 10000 | > 1000 | > 1000 | > 10000 | > 1000 | 3840 | > 10000 | 1220 | > 10000 | > 300 | > 10000 | > 1000 | 1010 | > 1000 | > 3000 | > 1000 | > 10000 | 359 | > 10000 | > 300 | > 1 | 1620 | 497 | > 10000 | > 10000 |  |  |  | 
2 | NCI-H2170 (Squamous Cell Lung Carcinoma) | > 3000 | > 1000 | > 10000 | > 1000 | > 1000 | 1100 | > 1000 | 5470 | > 10000 | 1540 | 7670 | 13.6 | > 10000 | 46.8 | > 2000 | 665 | > 3000 | 391 | 7380 | > 1000 | 362 | > 300 | > 1 | 678 | 539 | 1980 | > 10000 |  |  |  | 
3 | RVH-421 (Melanoma) |  |  | > 10000 | > 1000 | > 1000 | > 10000 | > 1000 |  |  | > 10000 | > 10000 | > 300 |  | > 1000 |  | > 1000 | 3000 | > 1000 |  |  |  |  | > 1 |  | > 1000 |  | > 10000 | > 1000 | > 3000 | > 3000 | > 1000
4 | TK (B-Cell Non-Hodgkin's Lymphoma) | > 3000 | > 1000 | > 10000 | > 1000 | > 1000 | 2790 | 46.2 | > 10000 | > 10000 | > 10000 | 1020 | 16.7 | > 10000 | 10.8 | > 2000 |  | > 3000 | > 1000 | > 10000 | > 1000 | > 10000 | > 300 | > 1 | 293 | > 1000 | > 10000 | > 10000 |  |  |  | 
